Results published in US20090075916A1, “Use of Macrolide Derivatives for Treating Acne” (priority 2005, published 2009).
Values after ≈ are worked out from the molar mass of the structure shown.

Tests used:
Test in all cases: MIC, agar dilution (NCCLS M11-A5), anaerobic
[1] = tested on: resistant P. acnes (NDDR I and II) isolates; type: cell-based, Propionibacterium acnes; conditions: Cutibacterium acnes
[2] = tested on: sensitive P. acnes isolates (Propionibacterium acnes 6523, ATCC 6919, clinical isolate, I and II); type: cell-based; conditions: Cutibacterium acnes, sensitive P. acnes isolates: 6523, ATCC 6919, clinical isolate, 48 hours anaerobic
All the P. acnes isolate = type: cell-based, Propionibacterium acnes

Row | MIC [1] [µg/mL] | MIC [2] [µg/mL] | Structure (SMILES) | susceptibility of P. acnes isolates (in words) (All the P. acnes isolate)
1 | > 16 | 0.06 to 0.5 (≈ 0.0801 to 0.668 µM) | CC[C@H]1OC(=O)[C@H](C)[C@@H](O[C@H]2C[C@@](C)(OC)[C@@H](O)[C@H](C)O2)[C@H](C)[C@@H](O[C@@H]2O[C@H](C)C[C@H](N(C)C)[C@H]2O)[C@](C)(O)C[C@@H](C)CN(C)[C@H](C)[C@@H](O)[C@]1(C)O [Azithromycin] | 
2 | > 16 | 0.06 to 0.5 (≈ 0.0818 to 0.681 µM) | CC[C@H]1OC(=O)[C@H](C)[C@@H](O[C@H]2C[C@@](C)(OC)[C@@H](O)[C@H](C)O2)[C@H](C)[C@@H](O[C@@H]2O[C@H](C)C[C@H](N(C)C)[C@H]2O)[C@](C)(O)C[C@@H](C)C(=O)[C@H](C)[C@@H](O)[C@]1(C)O [Erythromycin] | 
3 | 2 (≈ 2.46 µM) |  | CC[C@H]1OC(=O)[C@H](C)C(=O)[C@H](C)[C@@H](O[C@@H]2O[C@H](C)C[C@H](N(C)C)[C@H]2O)[C@](C)(OC)C[C@@H](C)C(=O)[C@H](C)[C@H]2N(CCCCn3cnc(-c4cccnc4)c3)C(=O)O[C@]12C [Telithromycin] | 
4 | 16 (≈ 37.6 µM) | 0.25 (≈ 0.588 µM) | CCC[C@@H]1C[C@@H](C(=O)N[C@@H]([C@H]2O[C@H](SC)[C@H](O)[C@@H](O)[C@H]2O)[C@H](C)Cl)N(C)C1 [Clindamycin] | 
5 | > 16 | 0.06 to 0.5 (≈ 0.0802 to 0.668 µM) | CC[C@H]1OC(=O)[C@H](C)[C@@H](O[C@H]2C[C@@](C)(OC)[C@@H](O)[C@H](C)O2)[C@H](C)[C@@H](O[C@@H]2O[C@H](C)C[C@H](N(C)C)[C@H]2O)[C@](C)(OC)C[C@@H](C)C(=O)[C@H](C)[C@@H](O)[C@]1(C)O [Clarithromycin] | 
6 |  |  | Cc1ncc([N+](=O)[O-])n1CCO [metronidazole] | resistance
